# Laboratory results taken from patent US4461771A, “Treatment of migraine with dioxopiperidine derivatives” (priority 1983, dated 1984).
# Structures can show the parent of a compound that is named as a salt.
# Assays:
# tryptophan hydroxylase = assay: Inhibition of the depolarisation induction of tryptophan hydroxylase in rat brainstem slices; format: cell-based; details: 37° C., from concentration response curves, read-out: IC50, concentration causing 50 percent inhibition of the depolarisation induction of tryptophan hydroxylase
# Protocol: The activity of the compounds as inhibitors of the depolarisation induction of tryptophan hydroxylase can be assessed by determining the IC50 in rat brainstem slices as described by Margaret C. Boadle-Biber, Biochemical Pharmacology 27 1069 (1978). The IC50 values are derived from concentration response curves as the concentration causing 50 percent inhibition of the depolarisation induction at 37° C. As an illustration the IC50 of d,l 3-(3'-methoxyphenyl)-3-(3"-N,N-dimethylaminopropyl)-4,4-dimethyl-2,6-dioxopiperidine hydrochloride is 10 μM.
# 5-HT transmission = assay: Fenfluramine-induced hyperthermia in rats (reduction of 5-HT transmission in vivo); details: four day chronic pretreatment, 10 mg/kg ip. twice daily, fenfluramine 7.5 mg/kg ip.
# Protocol: The activity of the compounds to reduce 5-HT transmission can be assessed in vivo by measuring their effect on the hyperthermia induced by an intraperitoneal injection of fenfluramine (see A. Sulpizio et al, Life Sciences 22 1439 (1978). As an illustration a four day chronic pretreatment of rats with 3-(3'-methoxyphenyl)-3-(3"-N,N dimethylaminopropyl) 4,4-dimethyl-2,6-dioxopiperidine hydrochloride at a dose level of 10 mg/kg ip. twice daily produced a 50 percent reduction in the hyperthermia induced by fenfluramine administered at a dose level of 7.5 mg/kg ip.
smiles,measurement,setting,value
"COc1cccc(C2(CCCN(C)C)C(=O)NC(=O)CC2(C)C)c1 (racemic) [Example 1, 3-(3'-Methoxyphenyl-3-(3""-N,N-dimethylaminopropyl)-4,4-dimethyl-2,6-dioxopiperidine hydrochloride]",IC50,tryptophan hydroxylase,10 µM
same,reduction in the hyperthermia induced by fenfluramine,5-HT transmission,50%
